In test [1] the test system is M. tuberculosis V-3093. As to the kind of experiment: MIC against M. tuberculosis strains, agar dilution. The test is classed as cell-based, Mycobacterium tuberculosis. The conditions noted are these: Middle Brook 7H10 + OADC, 37° C., 14-21 days.
For test [2], the system named is M. tuberculosis ATCC. As to the kind of experiment: MIC against M. tuberculosis strains, agar dilution. The test is classed as cell-based, Mycobacterium tuberculosis. The note with it: S. No. 01.Mt-, Middle Brook 7H10 + OADC, 37° C., 14-21 days. Background: In agar dilution the substance is mixed into plates at graded concentrations.
Test [3] deals with M. tuberculosis PC. Put plainly: MIC against M. tuberculosis strains, agar dilution. The test is classed as cell-based, Mycobacterium tuberculosis. The conditions noted are these: S. No. 18 Mt-, Middle Brook 7H10 + OADC, 37° C., 14-21 days.
Test [4] has as its system M. avium intracellulare 926/98. Put plainly: MIC against MAC strains, agar dilution. In kind it is cell-based. The conditions noted are these: S. No. 14 Mai-6, M. avium intracellulare 926/98; Middle Brook 7H10 + OADC, 37° C., 14-21 days.
In test [5] the test system is M. tuberculosis PC. Put plainly: MIC against M. tuberculosis strains, agar dilution. In kind it is cell-based, Mycobacterium tuberculosis. The conditions noted are these: S. No. 17 Mt-, Middle Brook 7H10 + OADC, 37° C., 14-21 days.
The test system of test [6] is M. tuberculosis PC. Put plainly: MIC against M. tuberculosis strains, agar dilution. The test is classed as cell-based, Mycobacterium tuberculosis. The note with it: S. No. 22 Mt-, Middle Brook 7H10 + OADC, 37° C., 14-21 days.
The subject of test [7] is M. tuberculosis 35801. Put plainly: MIC against M. tuberculosis strains, agar dilution. The conditions noted are these: S. No. 02 Mt-, Middle Brook 7H10 + OADC, 37° C., 14-21 days. In kind it is cell-based, Mycobacterium tuberculosis.
For test [8], the system named is K. oxytoca 49131. Put plainly: MIC, agar incorporation method. The test is classed as cell-based.
Test [9] relates to S. pneumoniae AB 10. Put plainly: MIC, agar incorporation method. In kind it is cell-based, Streptococcus pneumoniae.
Test [10] relates to S. aureus (MRSA) 21299. As to the kind of experiment: MIC, agar incorporation method. In kind it is cell-based, Staphylococcus aureus.
The test system of test [11] is S. pneumoniae 1275. Put plainly: MIC, agar incorporation method. The test is classed as cell-based, Streptococcus pneumoniae.
Test [12] has as its system S. pneumoniae AB 17. Put plainly: MIC, agar incorporation method. The test is classed as cell-based, Streptococcus pneumoniae.
Test [13] has as its system S. pneumoniae AB-2. As to the kind of experiment: MIC, agar incorporation method. In kind it is cell-based, Streptococcus pneumoniae.
Test [14] concerns S. pneumoniae AB4. Put plainly: MIC, agar incorporation method. In kind it is cell-based, Streptococcus pneumoniae.
Test [15] deals with S pneumoniae 1294. As to the kind of experiment: MIC, agar incorporation method. The test is classed as cell-based, Streptococcus pneumoniae.
Test [16] relates to S. pyogenes 19615. Put plainly: MIC, agar incorporation method. The test is classed as cell-based, Streptococcus pyogenes.
The subject of test [17] is S. aureus ATCC 25923. Put plainly: MIC, agar incorporation method. The test is classed as cell-based, Staphylococcus aureus.
Test [18] has as its system S. epidermidis (MRSE) 23760. As to the kind of experiment: MIC, agar incorporation method. The test is classed as cell-based, Staphylococcus epidermidis.
Test [19] concerns S. pneumoniae AB 30. As to the kind of experiment: MIC, agar incorporation method. In kind it is cell-based, Streptococcus pneumoniae.
In test [20] the test system is H. influenzae 49766. As to the kind of experiment: MIC against Haemophilus strains. The test is classed as cell-based. The note with it: s. No. 6, H. influenzae 49766.
In test [21] the test system is S. pneumoniae AB 29. As to the kind of experiment: MIC, agar incorporation method. In kind it is cell-based, Streptococcus pneumoniae.
Test [22] concerns E. faecalis 21777. Put plainly: MIC, agar incorporation method. The test is classed as cell-based.
Test [23] deals with S. pneumoniae AB 23. Put plainly: MIC, agar incorporation method. The test is classed as cell-based, Streptococcus pneumoniae.
The test system of test [24] is P. aeruginosa ATCC 27853. As to the kind of experiment: MIC, agar incorporation method. The test is classed as cell-based.
Test [25] deals with E. faecalis 29212. Put plainly: MIC, agar incorporation method. The test is classed as cell-based.
In test [26] the test system is S. pyogenes 20361. As to the kind of experiment: MIC, agar incorporation method. The test is classed as cell-based, Streptococcus pyogenes.
The subject of test [27] is S. pneumoniae 1256. Put plainly: MIC, agar incorporation method. In kind it is cell-based, Streptococcus pneumoniae.
Test [28] relates to S. aureus (MRSA 33) Cipro R. Put plainly: MIC, agar incorporation method. In kind it is cell-based, Staphylococcus aureus.
Test [29] relates to S. pneumoniae AB-3. Put plainly: MIC, agar incorporation method. In kind it is cell-based, Streptococcus pneumoniae.
Test [30] concerns S. epidermidis ATCC 12228. As to the kind of experiment: MIC, agar incorporation method. The test is classed as cell-based, Staphylococcus epidermidis.
Test [31] has as its system Moraxella cata. M2. Put plainly: MIC, agar incorporation method. The test is classed as cell-based.
Test [32] has as its system E. faecalis SP 346 (VRE). Put plainly: MIC, agar incorporation method. In kind it is cell-based.
[33] abbreviates: Mycobacterium tuberculosis, read-out: MIC.

Values after ≈ are worked out from the molar mass of the structure shown. Where two headings read alike, the source gives them in different places.

As to `CC[C@H]1OC(=O)[C@H](C)[C@@H](O[C@H]2C[C@@](C)(OC)[C@@H](O)[C@H](C)O2)[C@H](C)[C@@H](O[C@@H]2O[C@H](C)C[C@H](N(C)C)[C@H]2O)[C@](C)(OC)C[C@@H](C)C(=O)[C@H](C)[C@@H](O)[C@]1(C)O` [CLA], the MIC in test [1] (S. No. 14 Mt-) came to 16 µg/mL; in [2], 32 µg/mL; in test [3] it was 32 µg/mL; in test [4], 1.0 µg/mL; in test [5], 4.0 µg/mL; in test [6], 8.0 µg/mL. In addition, in test [7], the MIC is over 32 µg/mL.

With `CCc1cc(C(N)=S)ccn1` [ETH], the MIC was 2.0 µg/mL in [1] (S. No. 14 Mt-); 2.0 µg/mL in test [2]; 1.0 µg/mL in [3]; 16 µg/mL in [4]; 32 µg/mL in [5]; over 32 µg/mL in test [6]. Moreover, the MIC in [7] is 2.0 µg/mL.

Turning to `NNC(=O)c1ccncc1` [INH], the MIC in [1] (S. No. 14 Mt-) is 0.06 µg/mL; in [2], 0.125 µg/mL; in [3], 0.25 µg/mL; in test [4] it was 4.0 µg/mL; in test [5] it was 32 µg/mL; in test [6] it was over 32 µg/mL. The MIC in [7] came to 0.06 µg/mL.

Consider `CC(=O)NC[C@H]1CN(c2ccc(N3CCOCC3)c(F)c2)C(=O)O1` [Linezolid, reference compound], for which the MIC in test [8] (Klebsiella oxytoca, 49131) is over 16 µg/mL; in test [9] (Streptococcus pneumoniae, AB10), 0.25 µg/mL (≈ 0.741 µM); in test [10] (Staphylococcus aureus, MRSA), 1 µg/mL (≈ 2.96 µM); in test [11] (Streptococcus pneumoniae, 1275), 1 µg/mL (≈ 2.96 µM); in test [1] (Mycobacterium tuberculosis, V3093, S. No. 14 Mt-, read-out: MIC), 1 µg/mL; in [12] (Streptococcus pneumoniae, AB17), 1 µg/mL (≈ 2.96 µM). Moreover, the MIC was determined as 0.25 µg/mL (≈ 0.741 µM) in [13] (Streptococcus pneumoniae, AB2); 0.25 µg/mL (≈ 0.741 µM) in [14] (Streptococcus pneumoniae, AB4); 1 µg/mL (≈ 2.96 µM) in test [15] (Streptococcus pneumoniae, 1294.); 1 µg/mL (≈ 2.96 µM) in test [16] (Streptococcus pyogenes, 19615); 2 µg/mL (≈ 5.93 µM) in test [17] (Staphylococcus aureus, ATCC25923); 1 µg/mL (≈ 2.96 µM) in test [18] (Staphylococcus epidermidis, MRSE). Further, the MIC in test [19] (Streptococcus pneumoniae, AB30) worked out at 1 µg/mL (≈ 2.96 µM); in [20] (Haemophilus influenzae, read-out: MIC), 16 µg/mL (≈ 47.4 µM); in [21] (Streptococcus pneumoniae, AB29), 1 µg/mL (≈ 2.96 µM); in [2] (setting [33]), 1 µg/mL; in test [22] (Enterococcus faecalis, 21777), 2 µg/mL (≈ 5.93 µM); in [23] (Streptococcus pneumoniae, AB23) it was 1 µg/mL (≈ 2.96 µM). The MIC in [24] (Pseudomonas aeruginosa, ATCC27853) is over 16 µg/mL; in test [3] (setting [33]) it was 0.5 µg/mL; in test [25] (Enterococcus faecalis, 29212) it was 2 µg/mL (≈ 5.93 µM); in [26] (Streptococcus pyogenes, 20361), 1 µg/mL (≈ 2.96 µM); in [5] (setting [33]), 32 µg/mL; in [27] (Streptococcus pneumoniae, 1256), 1 µg/mL (≈ 2.96 µM). Further, the MIC in test [28] (Staphylococcus aureus, MRSA) was 1 µg/mL (≈ 2.96 µM); in test [6] (setting [33]), 32 µg/mL; in test [29] (Streptococcus pneumoniae, AB3), 0.25 µg/mL (≈ 0.741 µM); in test [30] (Staphylococcus epidermidis, ATCC12228), under 0.5 µg/mL; in test [31] (Moraxella, CATA.M2), 4 µg/mL (≈ 11.9 µM); in test [7] (setting [33]), 1 µg/mL. The MIC in [32] (Enterococcus faecalis, VRE) worked out at 2 µg/mL (≈ 5.93 µM).

`CO[C@H]1/C=C/O[C@@]2(C)Oc3c(C)c(O)c4c(O)c(c(/C=N/N5CCN(C)CC5)c(O)c4c3C2=O)NC(=O)/C(C)=C\C=C\[C@H](C)[C@H](O)[C@@H](C)[C@@H](O)[C@@H](C)[C@H](OC(C)=O)[C@@H]1C` [RIF]: the MIC in [2] was determined as 0.25 µg/mL; in test [4], 0.25 µg/mL; in test [5] it was 2.0 µg/mL; in test [6] it was 2.0 µg/mL; in test [7], 0.5 µg/mL.

Take `C[C@@H]1CN(c2c(F)c(N)c3c(=O)c(C(=O)O)cn(C4CC4)c3c2F)C[C@H](C)N1` [SPAR]: the MIC entry in test [1] (S. No. 14 Mt-) is “≦0.125 μg/ml”; in test [2], “≦0.125 μg/ml”; in test [3], “≦0.125 μg/ml”; in test [4], 2.0 µg/mL; in test [5], 8.0 µg/mL; in test [6] it was 4.0 µg/mL. Besides, in test [7], the MIC entry is “≦0.125 μg/ml”.

Take “(S)—N-[[3-[-3-Fluoro-4-[(5-nitro-2-thienyl)-3-methyl-1-piperazinyl]phenyl]-2-oxo-5-oxazolidinyl]methyl]acetamide [Compound No. 10]”: the MIC is over 8 µg/mL in test [8] (S. No. 27, K. oxytoca 49131); 0.25 µg/mL in test [9] (S. No. 35, S. pneumoniae AB 10); 1 µg/mL in test [10] (S. No. 5, S. aureus (MRSA) 21299); 0.25 µg/mL in test [11] (S. No. 57, S. pneumoniae 1275); 0.5 µg/mL in test [12] (S. No. 40, S. pneumoniae AB 17); 0.5 µg/mL in [13] (S. No. 31, S. pneumoniae AB-2). The MIC was 0.5 µg/mL in test [14] (S. No. 33, S. pneumoniae AB4); 0.5 µg/mL in test [15] (S. No. 55, S pneumoniae 1294.); 0.5 µg/mL in test [16] (S. No. 51, S. pyogenes 19615); 1 µg/mL in test [17] (S. No. 1, organism cell empty); 0.5 µg/mL in [18] (S. No. 11, S. epidermidis (MRSE) 23760); 0.25 µg/mL in test [19] (S. No. 47, S. pneumoniae AB 30). For the same molecule, the MIC in [20] was over 16 µg/mL; in [21] (S. No. 46, S. pneumoniae AB 29) it was 0.5 µg/mL; in [22] (S. No. 18, E. faecalis 21777), 1 µg/mL; in test [23] (S. No. 43, S. pneumoniae AB 23) it was 0.5 µg/mL; in test [24] (S. No. 28, P. aeruginosa ATCC 27853), over 8 µg/mL; in [25] (S. No. 17, E. faecalis 29212) it was 1 µg/mL. Besides, the MIC came out at 0.5 µg/mL in [26] (S. No. 53, S. pyogenes 20361); 0.25 µg/mL in test [27] (S. No. 56, S. pneumoniae 1256); 1 µg/mL in [28] (S. No. 7, S. aureus (MRSA 33) Cipro R); 0.5 µg/mL in [29] (S. No. 32, S. pneumoniae AB-3); 0.25 µg/mL in test [30] (S. No. 10, S. epidermidis ATCC 12228); 2 µg/mL in [31] (S. No. 59, Moraxella cata. M2). In addition, the MIC in test [32] (S. No. 20, E. faecalis SP 346 (VRE)) was 1 µg/mL.
